Measurements from patent US20240360137A1 (Novartis AG, priority 2023, published 2024).

Tests used:
Test in all cases: CDKi biochemical assay (TR-FRET, phosphorylation of S780 on RB1 peptide)
CDK2/CyclinE1 = CDK2/CyclinE1 (Homo sapiens, UniProt P24941); settings: CDK2/CyclinE1 100 pM, 1 mM ATP, 60 min at 25° C.
Method in brief: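 CDK2/CyclinE1 (Avi-tag, 100 pM; CDK2 E. coli-expressed) phosphorylated His-MBP-RB1[773-924] (200 nM) at S780 with 1 mM ATP in HEPES pH 7.5/MgCl2/DTT, 60 min at 25° C. After EDTA quench, TR-FRET detection ran 3 h (Eu anti-p-RB S780, SA-APC). Apparent IC50 came from percent activity versus log concentration.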

CDK6/cyclinD3 = CDK6/cyclinD3 (Homo sapiens, UniProt Q00534); settings: CDK6/cyclinD3 10 pM, 1 mM ATP, 60 min at 25° C.
Method in brief: (§1)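 Avi-tagged, biotinylated CDK4/cyclinD1 (20 pM) or CDK6/cyclinD3 (10 pM) phosphorylates 200 nM His-MBP-RB1[773-924] at S780 with 1 mM ATP in HEPES pH 7.5/MgCl2, 60 min, 25° C. After EDTA quench, Eu anti-pRB(S780)/SA-APC TR-FRET is read after 3 h. Apparent IC50 comes from % activity versus log concentration.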

CDK4/cyclinD1 = CDK4/cyclinD1 (Homo sapiens, UniProt P11802); settings: CDK4/cyclinD1 20 pM, 1 mM ATP, 60 min at 25° C.
Method in brief: as §1

CDK1/CyclinB1 = CDK1/CyclinB1 (Homo sapiens, UniProt P06493); settings: CDK1/CyclinB1 10 pM, 1 mM ATP, 60 min at 25° C.
Method in brief: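 CDK1/CyclinB1 (10 pM, Avi-tagged, insect-cell expressed) phosphorylated S780 of His-MBP-RB1[773-924] (200 nM) with 1 mM ATP in HEPES pH 7.5, 10 mM MgCl2, 1 mM DTT, 60 min at 25 °C. After EDTA quench, TR-FRET detection (Eu anti-pRB S780, SA-APC) for 3 h; apparent IC50 from percent activity versus log concentration.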

SMILES	IC50 (CDK2/CyclinE1) [nM]	IC50 (CDK6/cyclinD3) [µM]	IC50 (CDK4/cyclinD1) [µM]	IC50 (CDK1/CyclinB1) [nM]
Cc1cc(Nc2ncc3c(n2)N([C@@H]2CCC[C@@H](O)C2)C(=O)C32CC2)[nH]n1 [Example 5, 7′-((1R,3R)-3-hydroxycyclohexyl)-2′-((3-methyl-1H-pyrazol-5-yl)amino)spiro[cyclopropane-1,5′-pyrrolo[2,3-d]pyrimidin]-6′(7′H)-one]	1120	5.73	6.69	≥ 10000
O=C1N([C@@H]2CCC[C@@H](O)C2)c2nc(Nc3c[nH]nc3O[C@@H]3CCOC3)ncc2C12CC2 [Example 63, 7′-((1R,3R)-3-hydroxycyclohexyl)-2′-((3-(((R)-tetrahydrofuran-3-yl)oxy)-1H-pyrazol-4-yl)amino)spiro[cyclopropane-1,5′-pyrrolo[2,3-d]pyrimidin]-6′(7′H)-one]	43	≥ 10	≥ 10	3690
Cn1ccc(COc2n[nH]cc2Nc2ncc3c(n2)N([C@@H]2CCC[C@@H](O)C2)C(=O)C32CC2)n1 [Example 43, 7′-((1R,3R)-3-hydroxycyclohexyl)-2′-((3-((1-methyl-1H-pyrazol-3-yl)methoxy)-1H-pyrazol-4-yl)amino)spiro[cyclopropane-1,5′-pyrrolo[2,3-d]pyrimidin]-6′(7′H)-one]	19	8.84	3.09	1760
O=C1N([C@@H]2CCC[C@@H](O)C2)c2nc(Nc3c[nH]nc3OCC3CC3)ncc2C12CC2 [Example 38, 2′-((3-(cyclopropylmethoxy)-1H-pyrazol-4-yl)amino)-7′-((1R,3R)-3-hydroxycyclohexyl)spiro[cyclopropane-1,5′-pyrrolo[2,3-d]pyrimidin]-6′(7′H)-one]	8	9.2	6.1	1040
O=C1N([C@@H]2CCC[C@@H](O)C2)c2nc(Nc3c[nH]nc3OCCF)ncc2C12CC2 [Example 39, 2′-((3-(2-fluoroethoxy)-1H-pyrazol-4-yl)amino)-7′-((1R,3R)-3-hydroxycyclohexyl)spiro[cyclopropane-1,5′-pyrrolo[2,3-d]pyrimidin]-6′(7′H)-one]	7	2.95	1.43	1200
O=C1N([C@@H]2CCC[C@@H](O)C2)c2nc(Nc3c[nH]nc3-c3cnn4cccnc34)ncc2C12CC2 [Example 81, 7′-((1R,3R)-3-hydroxycyclohexyl)-2′-((3-(pyrazolo[1,5-a]pyrimidin-3-yl)-1H-pyrazol-4-yl)amino)spiro[cyclopropane-1,5′-pyrrolo[2,3-d]pyrimidin]-6′(7′H)-one]	6	≥ 10	≥ 10	410
Cn1ccc(-c2n[nH]cc2Nc2ncc3c(n2)N([C@@H]2CCC[C@@H](O)C2)C(=O)C32CC2)n1 [Example 79, 7-((1R,3R)-3-hydroxycyclohexyl)-2′-((1′-methyl-1H,1′H-[3,3′-bipyrazol]-4-yl)amino)spiro[cyclopropane-1,5′-pyrrolo[2,3-d]pyrimidin]-6′(7′H)-one]	50	≥ 10	≥ 10	≥ 10000
O=C1N([C@@H]2CCC[C@@H](O)C2)c2nc(Nc3c[nH]nc3OCCO)ncc2C12CC2 [Example 42, 7′-((1R,3R)-3-hydroxycyclohexyl)-2′-((3-(2-hydroxyethoxy)-1H-pyrazol-4-yl)amino)spiro[cyclopropane-1,5′-pyrrolo[2,3-d]pyrimidin]-6′(7′H)-one]	24	3.01	3.64	3740
N#Cc1n[nH]cc1Nc1ncc2c(n1)N([C@@H]1CCC[C@@H](O)C1)C(=O)C21CC1 [Example 20, 4-((7′-((1R,3R)-3-hydroxycyclohexyl)-6′-oxo-6′,7′-dihydrospiro[cyclopropane-1,5′-pyrrolo[2,3-d]pyrimidin]-2′-yl)amino)-1H-pyrazole-3-carbonitrile]	8	2.66	2.16	660
O=C1N([C@@H]2CCC[C@@H](O)C2)c2nc(Nc3c[nH]nc3-c3ccncc3)ncc2C12CC2 [Example 59, 7′-((1R,3R)-3-hydroxycyclohexyl)-2′-((3-(pyridin-4-yl)-1H-pyrazol-4-yl)amino)spiro[cyclopropane-1,5′-pyrrolo[2,3-d]pyrimidin]-6′(7′H)-one]	251	≥ 10	≥ 10	≥ 10000
O=C1N([C@@H]2CCC[C@@H](O)C2)c2nc(Nc3c[nH]nc3OC3CCC3)ncc2C12CC2 [Example 40, 2′-((3-cyclobutoxy-1H-pyrazol-4-yl)amino)-7′-((1R,3R)-3-hydroxycyclohexyl)spiro[cyclopropane-1,5′-pyrrolo[2,3-d]pyrimidin]-6′(7′H)-one]	26	≥ 10	≥ 10	2890
CN1C[C@H](Oc2n[nH]cc2Nc2ncc3c(n2)N([C@@H]2CCC[C@@H](O)C2)C(=O)C32CC2)[C@@H](F)C1 [Example 51, 2′-((3-(((3S,4S)-4-fluoro-1-methylpyrrolidin-3-yl)oxy)-1H-pyrazol-4-yl)amino)-7′-((1R,3R)-3-hydroxycyclohexyl)spiro[cyclopropane-1,5′-pyrrolo[2,3-d]pyrimidin]-6′(7′H)-one]	119	≥ 10	≥ 10	≥ 10000
COCCOc1n[nH]cc1Nc1ncc2c(n1)N([C@@H]1CCC[C@@H](O)C1)C(=O)C21CC1 [Example 22, 7′-((1R,3R)-3-hydroxycyclohexyl)-2′-((3-(2-methoxyethoxy)-1H-pyrazol-4-yl)amino)spiro[cyclopropane-1,5′-pyrrolo[2,3-d]pyrimidin]-6′(7′H)-one]	34	8.12	5.26	2960
O=C1N([C@@H]2CCC[C@@H](O)C2)c2nc(Nc3c[nH]nc3OCC(F)(F)F)ncc2C12CC2 [Example 56, 7′-((1R,3R)-3-hydroxycyclohexyl)-2′-((3-(2,2,2-trifluoroethoxy)-1H-pyrazol-4-yl)amino)spiro[cyclopropane-1,5′-pyrrolo[2,3-d]pyrimidin]-6′(7′H)-one]	10	6.28	3.13	800
O=C1N([C@@H]2CCC[C@@H](O)C2)c2nc(Nc3c[nH]nc3OC3CCC(F)(F)C3)ncc2C12CC2 (some centres unmarked) [Example 30]	22	9.8	6.95	4270
O=C1N([C@@H]2CCC[C@@H](O)C2)c2nc(Nc3c[nH]nc3O[C@H]3COC[C@@H]3F)ncc2C12CC2 [Example 25, 2′-((3-(((3S,4S)-4-fluorotetrahydrofuran-3-yl)oxy)-1H-pyrazol-4-yl)amino)-7′-((1R,3R)-3-hydroxycyclohexyl)spiro[cyclopropane-1,5′-pyrrolo[2,3-d]pyrimidin]-6′(7′H)-one]	24	≥ 10	≥ 10	2440
O=C1N([C@@H]2CCC[C@@H](O)C2)c2nc(Nc3c[nH]nc3OCC3CC4(COC4)C3)ncc2C12CC2 [Example 54, 2′-((3-((2-oxaspiro[3.3]heptan-6-yl)methoxy)-1H-pyrazol-4-yl)amino)-7′-((1R,3R)-3-hydroxycyclohexyl)spiro[cyclopropane-1,5′-pyrrolo[2,3-d]pyrimidin]-6′(7′H)-one]	134	≥ 10	≥ 10	≥ 10000
[2H]C([2H])([2H])Oc1n[nH]cc1Nc1ncc2c(n1)N([C@@H]1CCC[C@@H](O)C1)C(=O)C21CC1 [Example 49, 7′-((1R,3R)-3-hydroxycyclohexyl)-2′-((3-(methoxy-d3)-1H-pyrazol-4-yl)amino)spiro[cyclopropane-1,5′-pyrrolo[2,3-d]pyrimidin]-6′(7′H)-one]	15	≥ 10	9.77	2640
COC(=O)c1n[nH]cc1Nc1ncc2c(n1)N([C@@H]1CCC[C@@H](O)C1)C(=O)C21CC1 [Example 4, methyl 4-((7′-((1R,3R)-3-hydroxycyclohexyl)-6′-oxo-6′,7′-dihydrospiro[cyclopropane-1,5′-pyrrolo[2,3-d]pyrimidin]-2′-yl)amino)-1H-pyrazole-3-carboxylate]	96	≥ 10	≥ 10	≥ 10000
CSCc1n[nH]cc1Nc1ncc2c(n1)N([C@@H]1CCC[C@@H](O)C1)C(=O)C21CC1 [Example 68, 7′-((1R,3R)-3-hydroxycyclohexyl)-2′-((3-((methylthio)methyl)-1H-pyrazol-4-yl)amino)spiro[cyclopropane-1,5′-pyrrolo[2,3-d]pyrimidin]-6′(7′H)-one]	7	7.6	4.15	970
